Patent US20070218105A1, “Topical Treatment with NGF and DHA in Damaged Corneas” (priority 2004, published 2007)
“And” between values parts separate entries of the source, which are not always exact repeats. Equal entries are not always repeated.

Assays:
Format in all cases: in vivo, New Zealand albino rabbits
[1] = test system: Rabbit Corneas; assay: Rose bengal staining after PRK; settings: first postoperative month (30 days after PRK)
Description: Twenty-one New Zealand albino rabbits weighing 1.5 to 2.0 kg were obtained from a commercial supplier and were treated in accordance with the guidelines of the Association for Research in Vision and Ophthalmology. Each rabbit received intramuscular xylazine (10 mg/kg) and ketamine hydrochloride (50 mg/kg) anesthesia. Tetracaine eye drops were used as topical anesthesia. Tear secretion tests (e.g., tear break-up time, Schirmer's test, and rose bengal staining) were performed preoperatively under general anesthesia. Each rabbit received a unilateral PRK laser treatment. The corneal epithelium was removed with an epithelial scrubber (Katena Inc, Denville, N.J.). An excimer laser ablation to correct −5 diopters of myopia using a 6.5 mm optical zone (Lasersight Technologies, Inc., Winter Park, Fla.) was performed. […]
(§1) Statistical analyses were performed using the Statistical Analysis System (SAS) software version 9.0 (SAS Institute, Cary, N.C.). The tear secretion tests (Schirmer, tear break-up time and rose bengal staining) and density of nerve areas were analyzed using a repeated measures design in the analysis of variance (ANOVA). The differences in the tear secretion tests between the four treatment groups were analyzed at each time point. The effect of the various treatments on tubulin III-, CGRP- and SP-positive epithelial and sub-basal nerve areas was evaluated with a multivariate test. […]

[2] = test system: Rabbit Corneas; assay: Schirmer's test (tear secretion) after PRK; settings: mean ± Standard Error
Description: (§2) Twenty-one New Zealand albino rabbits weighing 1.5 to 2.0 kg were obtained from a commercial supplier and were treated in accordance with the guidelines of the Association for Research in Vision and Ophthalmology. Each rabbit received intramuscular xylazine (10 mg/kg) and ketamine hydrochloride (50 mg/kg) anesthesia. Tetracaine eye drops were used as topical anesthesia. Tear secretion tests (e.g., tear break-up time, Schirmer's test, and rose bengal staining) were performed preoperatively under general anesthesia. Each rabbit received a unilateral PRK laser treatment. The corneal epithelium was removed with an epithelial scrubber (Katena Inc, Denville, N.J.). An excimer laser ablation to correct −5 diopters of myopia using a 6.5 mm optical zone (Lasersight Technologies, Inc., Winter Park, Fla.) was performed. The eye was washed with balanced salt solution. Lubricating eye drops and an ophthalmic solution of 0.3% ofloxacin eye drops (Allergan Inc, Irvine, Calif.) were used postoperatively. Unless otherwise indicated, all chemicals were purchased from Sigmna Chemical Co. (St. Louis, Mo.).
(§3) Twenty-one New Zealand albino rabbits were divided in 4 groups. The three experimental groups consisted of 6 rabbits each. The control group had only 3 rabbits. The rabbits within each of the four groups were randomized to receive twice-weekly topical treatments through 72-hour collagen shields (Oasis Medical Inc.; Glendora, Calif.) for a total of eight weeks. […]
as §1

[3] = test system: sub-basal and epithelial nerve bundles; assay: Class III β-tubulin staining of sub-basal and epithelial nerve bundle area after PRK; settings: 8 weeks after PRK
Description: as §3, with “weeks. The four treatments were as follows: (1) 0.1 μg NGF (25 μl) plus 100 μl phosphate buffered saline (PBS); (2) 100 μg DHA (100 μl) plus 25 μl of PBS; (3) 0.1 μg NGF (25 μl) plus 100 μg DHA (100 μl); and (4) 125 μl of PBS with albumin (control).” for “weeks.”
as §1
(§4) Rabbits were humanely euthanized at 8 weeks post-PRK surgery using an intravenous overdose of pentobarbital. […] Each section was evaluated with hematoxylin and eosin (H&E) stain and by immuno-histochemical analysis. […]

[4] = test system: corneal epithelium; assay: Ki-67 immunostaining of proliferating cells in corneal epithelium after PRK; settings: 8 weeks after PRK
Description: as §3, with “weeks. The four treatments were as follows: (1) 0.1 μg NGF (25 μl) plus 100 μl phosphate buffered saline (PBS); (2) 100 μg DHA (100 μl) plus 25 μl of PBS; (3) 0.1 μg NGF (25 μl) plus 100 μg DHA (100 μl); and (4) 125 μl of PBS with albumin (control).” for “weeks.”
as §4
Photographs of the tissue sections were acquired using MetaVue version 5.0r3 (Universal Imaging Corp.; Downingtown, Pa.) and saved as a TIFF file. (Data not shown) The tubulin III-, CGRP- and SP-positive tissue nerve areas and the percentage of Ki-67 cells were calculated with respect to the total area using the image analysis program Image Pro Plus 4.5 (Media Cybernetics Inc., Silver Spring, Md.). Sub-basal and epithelial nerve areas were measured in all groups eight weeks after PRK using anti-class III β tubulin, CGRP and SP monoclonal antibodies. […]

[5] = test system: Rabbit Corneas; assay: Tear break-up time after PRK; settings: for Tear Break-Up Time: mean ± Standard Error
Description: as §2
Twenty-one New Zealand albino rabbits were divided in 4 groups. The three experimental groups consisted of 6 rabbits each. The control group had only 3 rabbits. The rabbits within each of the four groups were randomized to receive twice-weekly topical treatments through 72-hour collagen shields (Oasis Medical Inc.; Glendora, Calif.) for a total of eight weeks. The four treatments were as follows: (1) 0.1 μg NGF (25 μl) plus 100 μl phosphate buffered saline (PBS); (2) 100 μg DHA (100 μl) plus 25 μl of PBS; (3) 0.1 μg NGF (25 μl) plus 100 μg DHA (100 μl); and (4) 125 μl of PBS with albumin (control). In all animals, a tarsorrhaphy was performed on the treated eyes, and the eyes were opened only twice a week to introduce a new collagen shield.
Statistical analyses were performed using the Statistical Analysis System (SAS) software version 9.0 (SAS Institute, Cary, N.C.). The tear secretion tests (Schirmer, tear break-up time and rose bengal staining) and density of nerve areas were analyzed using a repeated measures design in the analysis of variance (ANOVA). The differences in the tear secretion tests between the four treatment groups were analyzed at each time point. The effect of the various treatments on tubulin III-, CGRP- and SP-positive epithelial and sub-basal nerve areas was evaluated with a multivariate test. Comparisons among the four treatments groups were made using adjusted least square means with alpha levels corrected by a simulation method.
Tear secretion tests (tear break-up time, Schirmer's test and rose bengal staining) were performed every 15 days over the 8-week period following PRK. All the tests were performed with general anesthesia. […]

## CC/C=C\C/C=C\C/C=C\C/C=C\C/C=C\C/C=C\CCC(=O)O [DHA, docosahexaenoic acid]
[1]
  eyes with positive rose bengal staining: 33%
[2]; 15 Days after PRK
  Schirmer's Test: 10 mm and 10.0 ± 3.7 mm
[2]; 30 Days (1 month) after PRK
  Schirmer's Test: 11.5 mm and 11.5 ± 3.4 mm
[2]; 45 Days after PRK
  Schirmer's Test: 12.5 ± 2.3 mm
[3]; FIG. 2A
  average ratio of sub-basal tubulin-positive nerve bundle area to total area: ~1.2
[3]; epithelial layer, FIG. 2B
  ratio of the tubulin positive nerve bundle area to the total epithelial area: no significant effect
[4]
  percentage of Ki-67 positive epithelial cells: 6%
[5]; 1 week postoperative
  tear break-up time measurement: 14.5 s
[5]; 15 Days after PRK
  Tear Break-Up Time: 14.5 ± 6.2 s
[5]; 30 Days (1 month) after PRK
  Tear Break-Up Time: 14.0 s and 14.0 ± 4.8 s
[5]; 45 Days after PRK
  Tear Break-Up Time: 14.0 ± 4.0 s
